Here are results for three compounds from article PMC9897767, “Assessments of CYP‑inhibition‑based drug–drug interaction between vonoprazan and poziotinib in vitro and in vivo” (Pharmaceutical Biology, 2023).

Like-named read-outs stand apart in the source and are kept apart here.

Data set [1] deals with metabolism of vonoprazan in rat liver microsomes. Description: Inhibition of vonoprazan metabolism by poziotinib in rat liver microsomes. It counts as in vitro ADME. Here is the method:
Rat liver microsomes (RLMs) were prepared according to the previously reported differential centrifugation method (Eriksson [1978]; Wang et al. [2018]), and the concentration of total protein in the RLM was determined to be 28 mg/mL by the BCA protein quantitative method. Then, a 200 μL incubation system was established, which consisted of 5 μg RLM, 100 mM phosphate buffer (pH 7.4), 10 μM vonoprazan (close to its Km), and a series gradient concentration of poziotinib (100, 50, 10, 5, 1, 0.1, 0.01 μM). The mixture was preincubated at 37 °C for 5 min, and NADPH (1 mM) was then added to start the reaction after vortexing. The mixture was placed at 37 °C in a water bath for 30 min with shaking, and 200 μL acetonitrile was added to terminate the reaction and precipitate the protein. Diazepam-acetonitrile solution was then added accurately to serve as the internal standard. After vortexing, the mixture was centrifuged at 12,000 rpm for 10 min and the supernatant was transferred to the sample bottle for further separation. Vonoprazan and its metabolite M-I were detected by UPLC-MS/MS according to the previously reported method (Shen et al. [2020]). The nonlinear regression equation was fitted with GraphPad Prism 9.0 software to calculate the IC50 value of poziotinib.
To better understand the inhibitory mechanism of poziotinib on vonoprazan, a series of gradient concentrations of vonoprazan were used in the reaction, which included 1/4-, 1/2-, 1-, and 2-times the Km value. Similarly, concentrations of 0, 1/4-, 1/2-, 1-, and 2-times the IC50 of poziotinib were also included in the experiment. The above mentioned UPLC-MS/MS method was used for the quantification of the vonoprazan metabolite M-I. Ki and αKi values were calculated, and the inhibitory mechanism was analyzed using a primary Lineweaver-Burk diagram, Dixon diagram, and secondary Lineweaver-Burk diagram by GraphPad Prism 9.0.

Details of data set [2]: method as in Suzuki et al. ([2021]). The conditions noted are these: kidney transplant recipients, after switching from rabeprazole to vonoprazan coadministration; ref Suzuki et al. ([2021]); cited from earlier work.
Data set [3] in a line: Pharmacokinetics of vonoprazan and metabolite M-I in rats with and without poziotinib pretreatment. It counts as in vivo, Sprague-Dawley (SD) rats. The conditions noted are these: vonoprazan; for CL/F / Cmax / Tmax / half-life / MRT last / MRT inf / Vd/F: male, Sprague-Dawley, rat, serum, po, 10 mg/kg; for CL/F: 10 mg/kg gavage, read-out: CLz/F (converted); for MRT last: read-out: MRT(0-t); for MRT inf: read-out: MRT(0-∞); for Vd/F: read-out: Vz/F. Here is the method: Twelve healthy male SD rats were randomly divided into two groups. The poziotinib group was given 5 mg/kg poziotinib by gavage every day for 7 days, and rats in the control group only received equal amounts of 0.5% CMC-Na solution in the pre-treatment time. Then animals in the poziotinib group and the control group were fasted for 12 h. On Day 8, the poziotinib group was given poziotinib (5 mg/kg) by gavage, and vonoprazan (10 mg/kg) was given 30 min later, while the control group was only given vonoprazan (10 mg/kg) by gavage. Tail venous blood (300 µL) was collected at 0.083, 0.25, 0.5, 1, 2, 3, 4, 6, 12, and 24 h after the administration of vonoprazan, and then the blood was centrifuged at 4,000 rpm, and 4 °C for 10 min. The serum was collected and stored at −80 °C. After thawing at room temperature, 100 μL of the serum sample was removed and 200 μL of acetonitrile containing diazepam (500 ng/mL) was then added to precipitate proteins. After vortexing, 150 μL of supernatant was removed and centrifuged at 13,000 rpm for 5 min. Then, 2 μL of sample was used for the detection of vonoprazan and its main metabolite M-I by UPLC-MS/MS.
DAS (version 3.2.8; The People’s Hospital of Lishui) was used to fit and calculate the pharmacokinetic parameters of vonoprazan and its metabolite M-I, which include peak time (Tmax), maximum plasma concentration (Cmax), elimination half-life (T1/2), area under the drug-time curve (AUC) and clearance rate (CLz/F). SPSS (version 25.0, IBM, USA) was used for the data processing. Student’s t-test was used to compare the normal distribution of the data, and the Mann–Whitney U test was used for the nonnormal distribution of the data. *p < 0.05 indicates a significant difference compared to the control group and **p < 0.001 indicates an extremely significant difference compared to the control group.
ACQUITY I-Class UPLC and Waters XEVO TQD MS (Milford, MA, USA) were used for the detection of vonoprazan and M-I with an ACQUITY UPLC BEH C18 chromatographic column (50 × 2.1 mm, 1.7 μm) at 40 °C. […] The injection volume of the sample was 2 μL. The scanning method was multiple reaction monitoring (MRM) with detection in positive ion mode and an ESI + ion source. Other mass spectrometry parameters were as follows: capillary voltage 2.0 kV, ion source temperature 150 °C, dissolvent temperature 500 °C, argon flow rate 0.15 mL/min, cone hole gas flow 50 L/h, solvent gas flow 1000 L/h. The precursor ion and product ion were m/z 346.04→314.97 for vonoprazan, m/z 347.50→205.00 for M-I, and m/z 285.10→193.10 for internal standard (IS), diazepam.

A short description of data set [4]: Michaelis-Menten kinetics of vonoprazan in rat liver microsomes. The conditions noted are these: pH 7.4, vonoprazan as substrate. The data set is classed as in vitro ADME. Here is the method: Rat liver microsomes (RLMs) were prepared according to the previously reported differential centrifugation method (Eriksson [1978]; Wang et al. [2018]), and the concentration of total protein in the RLM was determined to be 28 mg/mL by the BCA protein quantitative method. Then, a 200 μL incubation system was established, which consisted of 5 μg RLM, 100 mM phosphate buffer (pH 7.4), 10 μM vonoprazan (close to its Km), and a series gradient concentration of poziotinib (100, 50, 10, 5, 1, 0.1, 0.01 μM). The mixture was preincubated at 37 °C for 5 min, and NADPH (1 mM) was then added to start the reaction after vortexing. […] Vonoprazan and its metabolite M-I were detected by UPLC-MS/MS according to the previously reported method (Shen et al. [2020]). […]
To better understand the inhibitory mechanism of poziotinib on vonoprazan, a series of gradient concentrations of vonoprazan were used in the reaction, which included 1/4-, 1/2-, 1-, and 2-times the Km value. […] The above mentioned UPLC-MS/MS method was used for the quantification of the vonoprazan metabolite M-I. Ki and αKi values were calculated, and the inhibitory mechanism was analyzed using a primary Lineweaver-Burk diagram, Dixon diagram, and secondary Lineweaver-Burk diagram by GraphPad Prism 9.0.
A general note: Liver microsomes are vesicles of endoplasmic reticulum, rich in cytochrome P450 enzymes.

The mark [5] stands for this setting: oral 10 mg/kg, control group (no poziotinib).
Where [6] appears, read: oral 10 mg/kg, poziotinib group (5 mg/kg oral pretreatment).
The mark [7] stands for this setting: oral 10 mg/kg, poziotinib 5 mg/kg pretreatment.

What is called Ki is a dissociation constant, usually derived from enzyme kinetics or from competition with a known ligand. As usually defined, the IC50 is the midpoint of a concentration-inhibition curve. With `C=CC(=O)N1CCC(Oc2cc3c(Nc4ccc(Cl)c(Cl)c4F)ncnc3cc2OC)CC1` [poziotinib], the inhibition mechanism entry in data set [1] (Lineweaver-Burk plot) is “mixed model of noncompetitive and uncompetitive inhibition”. Moreover, in data set [1] (Lineweaver-Burk, slope of primary plot, read-out: inhibitory constant Ki), the Ki was determined as 0.574 µM. In data set [1] (pH 7.4, probe vonoprazan 10 μM (metabolite M-I measured), 10 μM vonoprazan, NADPH 1 mM, 37 °C 30 min), the IC50 at 30 min came out at 10.6 µM.

As to `C=CC[C@@H]1/C=C(\C)C[C@H](C)C[C@H](OC)[C@H]2O[C@@](O)(C(=O)C(=O)N3CCCC[C@H]3C(=O)O[C@H](/C(C)=C/[C@@H]3CC[C@@H](O)[C@H](OC)C3)[C@H](C)[C@@H](O)CC1=O)[C@H](C)C[C@@H]2OC` [tacrolimus], the “increase of blood concentration of tacrolimus” value in data set [2] was 65.8%.

Usually Cmax stands for the peak of the concentration-time curve. In general, Tmax refers to the time from dosing to the highest level. The term half-life denotes the time in which the quantity being followed falls by half. Broadly, the Km is the substrate concentration at which the rate is half of its maximum. Take `CNCc1cc(-c2ccccc2F)n(S(=O)(=O)c2cccnc2)c1` [vonoprazan]: the CL/F in data set [3] (control group) was 2710 mL/min/kg. For the same compound, the CL/F in data set [3] (poziotinib pretreatment 5 mg/kg) was 431 mL/min/kg. Moreover, in data set [3] (setting [5]), the Cmax is 5.69 ± 3.73 ng/mL, the Tmax turned out to be 0.63 ± 0.31 h, the half-life was 1.25 ± 0.77 h and the MRT last came to 2.29 ± 0.36 h. Further, in data set [3] (setting [5]), the MRT inf came to 2.29 ± 0.36 h and the Vd/F was 298 ± 191 L/kg. Besides, in data set [3] (setting [6]), the Cmax worked out at 15.4 ± 4.98 ng/mL, the Tmax was found to be 1.92 ± 2.06 h, the half-life was 2.84 ± 1.44 h and the MRT last is 5.26 ± 1.77 h. Further, in data set [3] (setting [6]), the MRT inf was determined as 5.51 ± 2.06 h and the Vd/F came to 90.5 ± 27.3 L/kg. In data set [3] (setting [7]), the “AUC(0-T) increase, poziotinib group vs control group” value turned out to be 6.02 fold; the “AUC(0-∞) increase, poziotinib group vs control group” value stood at 6.11 fold; the “CLz/F reduction, poziotinib group vs control group” value is given as 84%; the “Cmax increase, poziotinib group vs control group” value is reported as 2.7 fold. Moreover, in data set [3] (setting [7]), the “MRT(0-T) increase, poziotinib group vs control group” value is listed as 2.30 fold; the “MRT(0-∞) increase, poziotinib group vs control group” value was 2.41 fold; the “T1/2 increase, poziotinib group vs control group” value is reported as 2.2 fold; the “Tmax increase, poziotinib group vs control group” value is 3.0 fold. For the same compound, the “Vz/F reduction, poziotinib group vs control group” value in data set [3] (setting [7]) is 70%. Also, the Km at 30 min in data set [4] stood at 14.3 µM.
